From US6262036A, “Method for inhibiting RNA translation using chimeric oligonucleoside compounds” (priority 2000, dated 2001)
Values joined by “and” are separate entries in the source; they are usually repeats but may differ in a detail not shown here. Identical values can stand only once.

What was measured:
[1] = tested on: complementary synthetic RNA target; assay: Binding affinities of chimeric backbone oligomers to RNA (Example 35); design: KA (37° C.): unit not given here; settings: for Tm: 1:1 molar ratio, 2.4 micromolar total strand, pH 7.2, 100 mM NaCl; for KA (37° C.): two-state model fit
Procedure: The following oligonucleotides were tested for their ability to hybridize to a complementary synthetic RNA target.
The bases shown in parentheses contain the backbone modification indicated in the middle set of brackets for each description, and likewise the terminal portions of the oligomers contain linkage structures as shown in the terminal sets of brackets. The PS/DE notation indicates an alternating array of bases beginning with a phosphorothioate linkage. For example, if there are five bases in a sequence denoted as PS/DE, they include three phosphorothioate (PS) bonds and two phosphodiester (DE) bonds.
Each oligomer was mixed with its complementary synthetic RNA target in a 1:1 molar ratio in a buffer system consisting of 20 mM sodium phosphate buffer (pH 7.2), 100 mM NaCl, 0.03% potassium sarkosylate and 0.1 mM EDTA; total strand concentration=2.4 micromolar. The resulting solutions were heated to 70° C. and slowly cooled to 4° C. over a time period of approximately 4-6 hours. […] The binding constants at 37° C.

[2] = tested on: endogenous eukaryotic RNaseH derived from HeLa cell nuclear extracts; assay type: biochemical; settings: 10 μM oligomer, 1 μM RNA target
S1-endonuclease = assay: Stability to nuclease digestion by S1-endonuclease (Example 37); assay type: in vitro ADME; settings: S1-endonuclease 0.5 units/mL, pH 5.0, 37° C.; 50% full length oligomer digested
Procedure: The following oligomers were tested for nuclease stability in the presence of S1-endonuclease.
S1-endonuclease was purchased from Promega Corp. (Catalog #E576B, Madison, Wis.). Aliquots of each chimeric oligomer (0.05-0.075 OD260 units) were individually added to polypropylene microcentrifuge tubes containing S1-endonuclease (0.5 units/mL) in 30 mM sodium acetate (pH 5.0), 50 mM NaCl, 1.0 mM zinc acetate and 5% glycerol; total reaction volume=10 μL. These tubes were incubated at 37° C. for specified time periods, quickly frozen in dry ice and then stored in a freezer at -20° C. […] Column=Vydac Protein C4 (catalog #214TP54, 4.9 mm i.d.×250 mm long). Buffer A=50 mM triethylammonium acetate (pH 7)/1% acetonitrile; Buffer B=50 mM triethylammonium acetate (pH 7)/50% acetonitrile. […] The samples were diluted with water (50 μL) and injected onto the column using a 100 μL sample loop. Peaks corresponding to full length oligomer and its degradation products were detected by monitoring at 260 nm. The amount of degradation occurring in each reaction was determined by measuring the reduction in peak area for the full-length oligomer (identified by comparison to an external control and/or by coinjecting undigested oligomer as an internal control). The data is shown in tabular format below, and in graphic format in FIG. 1.

[3] = Stability to nuclease digestion in 10% fetal calf serum (Example 38); assay type: in vitro ADME; settings: pH 8.0, 37° C., 50% full length oligomer digested, first three time points
Procedure: Multiple samples of each chimeric oligomer were prepared in 1.5 mL polypropylene microcentrifuge tubes on ice. Each sample contained oligomer (0.1 OD260 unit), 10% fetal calf serum (FCS, Gemini Bioproducts, Calabasas, Calif.), 20 mM HEPES (pH 8.0), 0.2% paramethylsulfonyl fluoride (PMSF), 175 mM KCl, 0.1 mM dithiothreitol, 0.1 mM EDTA, 2 mM MgCl2 and 4% glycerol--total volume=100 μL. The samples were incubated at 37° C. for specified time periods and then diluted with 0.4% NP-40/acetonitrile (35 μL), quickly frozen on dry ice and stored at -20° C. Samples were then individually thawed, diluted with water (635 μL) and analyzed immediately by reversed-phase HPLC according to the method given in the preceding example (except that a 2 mL sample loop was used to load the samples onto the column). Results are shown in tabular format below, and in graphical format in FIG. 2.

target mRNA [4] = assay: Cell-free translation of target mRNA in rabbit reticulocyte lysates (Example 39); assay type: biochemical
Procedure: (§1) A target mRNA having complementarity to these oligomers at the initiation codon region was prepared by standard cloning techniques with […] catalyzed by T7 polymerase (Promega MEGAscript kit for uncapped RNA), according to the manufacturer's protocol. Control CAT mRNA was obtained from GIBCO as a control for specificity.
(§2) Target mRNA and control CAT mRNA were translated in a cell-free translation assay in rabbit reticulocyte lysates (Promega), in the presence of ^35 [S]-Cys (NEN/DuPont) following the manufacturer's directions. Oligos 2567-1 and 3169-1 were added to individual translation reactions at […], final concentrations. RNAse-H (Promega Corp.) was added to all the translation reactions at 0.04 units/ul. Each condition was run in triplicate. Translation reactions were incubated at 37° C. for 1 hour. At the end of the translation reactions, proteins were denatured with Laemmli Sample Buffer (Novex) and the amounts of target proteins synthesized in each case were evaluated after immunoprecipitation with an hyperimmune antibody serum followed by gel fractionation of the protein products (10-20% gradient SDS-PAGE gels, Novex) and phosphoimage analysis. The amount of control CAT protein synthesized in each case was evaluated after gel fractionation of one aliquot of the denatured translation reaction (10-20% gradient SDS-PAGE gels, Novex) and phosphoimage analysis.

control CAT mRNA = assay: Cell-free translation of control CAT mRNA in rabbit reticulocyte lysates (Example 39); assay type: biochemical; settings: 0.2 or 1 μM
Procedure: as §1
as §2, with “Translation reactions were incubated at 37° C. for 1 hour.” left out

target mRNA [5] = assay: Cleavage of target mRNA in the presence of RNAseH (Example 40); assay type: biochemical; settings: for % of target mRNA cleavage: 30 minutes, estimated by visual inspection of the gel; for specificity of target mRNA cleavage: denaturing gel
Procedure: A target mRNA having complementarity to these oligomers at the initiation codon region was prepared by standard cloning techniques with transcription using a T7 polymerase cell-free assay (Promega MEGAscript kit for uncapped RNA), according to the manufacturer's protocol. The resulting mRNA transcript is approximately 340 nt in length.
The ability to cleave this target mRNA, in the presence of RNAseH and either of oligomers 2567-1 {[MP]-[DE]-[MP]} and 3169-1 {[MP(Rp)/DE]-[DE]-[MP(Rp)/DE]} was determined as follows.
Cell-free transcribed mRNA (100 nM) was incubated at 37° C., in a cell-free translation buffer (containing 3.5 mM MgCl2, 25 mM KCl, 70 mM NaCl and 20 mM potassium acetate), in the presence of 0.04 units/μl of RNAseH (Promega) and either of oligomers 2567-1 or 3169-1 at 0, 0.01, 0.1, 1, or 10 μM. After 30 minutes, the RNA was extracted, denatured and run in a denaturing gel. After the run, the RNA was stained with ethidium bromide and its integrity was determined by visual observation of the RNA bands present in the gel.

pG1035 (SplicerCAT) = assay: Inhibition of CAT expression, splicing target pG1035 (SplicerCAT), in COS-7 cells; assay type: cell-based, African Green Monkey; settings: 1.0 μM oligomer; ± std error; normalized to protein and luciferase; chimeric oligomers also normalized to pG1036
Procedure: (§3) COS-7 cells were transiently transfected with plasmids encoding either a target reporter gene or a control non-target reporter gene. These cells were then treated with various chimeric antisense or control oligomers and then assayed for the expression of the reporter genes.
pG1035: Splicer CAT, inserted into a pRc/CMV vector
COS 7 cells were plated at 1.5×10^5 cells/well in a 12 well plate format on the day before transfections began. All cultures were maintained at 37° C. On the next day, the transfection mixes were prepared. For each well of a 12 well plate, 1.0 μM oligomer was combined with 1 μg pGL2 or pSVβ+1 μg of the target CAT plasmid in 0.5 ml of Optimem (Gibco/BRL) and 18.75 μg Transfectam (for chimeric oligomers, Promega) or Lipofectamine (for all PS oligomers, Promega) also in 0.5 ml of Optimem. These quantities gave a 6.9 or 4.5 or 2.0 to 1 cationic lipid to oligomer plus DNA ratio, respectively, in one milliliter total. pGL2 and pSVβ served as transfection and oligomer specificity controls. […]
(§4) The cell lysates were then assayed for CAT, and luciferase or […] activity, and the total protein concentration was determined as described below. […]
(§5) […] of reaction mixture was then added to each tube, which was then incubated for, typically, approximately 1 hour in a 37° C. oven. […] The sample was then counted in a Packard scintillation counter.
(§6) This assay was performed generally as follows according to standard procedures. 20 μof lysate was combined with 100 μl of luciferase assay reagent (Promega) and counted in a scintillation counter (Packard) within 20 seconds (as recommended by Promega). […]
Six μl of lysate per well was added, followed by 300 μl Coomassie Protein Assay Reagent (Pierce) per well. The individual sample plates were then read at A570 on a microplate reader (Molecular Devices). […]
Oligomers were transfected into COS-7 cells and lysates were made and assayed as described previously. […] N.D.=not determined. […]

pG1036 (wild-type CAT) = assay: Inhibition of CAT expression, non-splicing control pG1036 (wild-type CAT), in COS-7 cells; assay type: cell-based, African Green Monkey; settings: 1.0 μM oligomer; ± std error; normalized to protein and luciferase
Procedure: as §3
pG1036: Wild-type CAT, inserted into a pRc/CMV vector
COS 7 cells were plated at 1.5×10^5 cells/well in a 12 well plate format on the day before transfections began. All cultures were maintained at 37° C. On the next day, the transfection mixes were prepared. […] These quantities gave a 6.9 or 4.5 or 2.0 to 1 cationic lipid to oligomer plus DNA ratio, respectively, in one milliliter total. pGL2 and pSVβ served as transfection and oligomer specificity controls. […]
as §4, §5, §6

Row | Substance | Tm [1] [°C] | KA (37° C.) [1] | RNaseH Cleavage after 2 Hrs. at 37° C. [2] [%] | Half-Life for Degradation (S1-endonuclease) [h] | Half-Life for Degradation [3] [h] | inhibition of target mRNA translation (target mRNA [4]; 0.2 μM) | inhibition of target mRNA translation (target mRNA [4]; 1 μM) | inhibition of control CAT mRNA translation (control CAT mRNA) | % of target mRNA cleavage (target mRNA [5]; 0.01 μM) [%] | % of target mRNA cleavage (target mRNA [5]; 0.1 μM) [%] | % of target mRNA cleavage (target mRNA [5]; 1 μM) | % of target mRNA cleavage (target mRNA [5]; 10 μM) [%] | specificity of target mRNA cleavage (target mRNA [5]) | percent inhibition of CAT expression, pG1035 = splicing (pG1035 (SplicerCAT)) [%] | percent inhibition of CAT expression, pG1036 = non-splicing (pG1036 (wild-type CAT)) [%]
1 | 3169-1: 5'-GTCTTCCA(TGCAT)GTTGTCC-3' [MP(Rp)/DE][DE][MP(Rp)/DE] [Oligomer 3169-1] | 62.6 | 6.0 × 10^14 | 52.0 | 0.9 | 3.4 | approximately 50% | ~90% | little inhibition | 5 | 40 | ~ 98% and 98% | 100 | good specificity, cleaving the target mRNA in one position |  | 
2 | XV-7: 24mer, all phosphorothioate: 5' ccc tga gag aga gag aga ggt tcg 3' (CCCTGAGAGAGAGAGAGAGGTTCG; all phosphorothioate, sugars by position and methylation of C not given here) |  |  |  |  |  |  |  |  |  |  |  |  |  | 17 ± 6 | 
3 | XV-6: 24mer, all phosphorothioate: 5' cac tca atc aat gac tag tct gca 3' (CACTCAATCAATGACTAGTCTGCA; all phosphorothioate, sugars by position and methylation of C not given here) |  |  |  |  |  |  |  |  |  |  |  |  |  | 23 ± 15 | 30 ± 4
4 | 2567-1: 5'-GTCTTCCA(TGCAT)GTTGTCC-3' [MP][DE][MP] [Oligomer 2567-1] | 45.6 | 2.9 × 10^7 |  | 1.7 | 5.8 | approximately 0% | approximately 50% | little inhibition | 2 | 15 | ~ 50% and 50% | 80 | good specificity, cleaving the target mRNA in one position |  | 
5 | XV-5: 24mer, all phosphorothioate: 5' cac tca cct tta ggg aaa tag gcc 3' (CACTCACCTTTAGGGAAATAGGCC; all phosphorothioate, sugars by position and methylation of C not given here) |  |  |  |  |  |  |  |  |  |  |  |  |  | 32 ± 1 | 35 ± 1
